Assay results reported in patent US20250367305A1, “ALBUMIN NANOCOMPOSITE COMPRISING PHYTOCHEMICAL AND COMPOSITION FOR IMPROVING MUSCLE DISEASE CONTAINING SAME” (SEOUL NATIONAL UNIVERSITY R&DB FOUNDATION, priority 2023, published 2025).

Legend:
[1] = test system: MHC, MyoG (myogenin) in C2C12; assay: Western blot of MHC and MyoG in cisplatin-treated cells; type: cell-based, mouse; conditions: reduced by cisplatin treatment
Method: Additionally, proteins were extracted from each experimental cell group, and western blot analysis was conducted to examine the expression level of MyoG (myogenin), which induces muscle generation.

[2] = test system: Mouse muscle cells (C2C12); assay: Muscle cell atrophy induced by cisplatin: myotube differentiation by immunofluorescence; type: cell-based; conditions: 40 μM cisplatin, 2.5 and 5 μM, 48 hours
[3] = test system: Mouse muscle cells (C2C12); assay: Cytotoxicity by DAPI nuclei count; type: cell-based; conditions: apigenin 2.5 and 5 μM, 96 hours
Method: After 96 hours of incubation, cell nuclei were stained with DAPI.

[4] = test system: RAW cells polarized from M0 to M1; assay: M1-type macrophage inhibition: cell morphology and intracellular/extracellular ROS levels; type: cell-based
[5] = test system: MHC, IGF-IR, p-AKT, p-Foxo3a, MuRF1 in C2C12; assay: Western blot of muscle generation and degradation proteins in CCM-treated cells; type: cell-based, mouse
Source text: Meanwhile, to evaluate the effect of the apigenin-glycated albumin composite on the expression of genes related to muscle generation and degradation, proteins were extracted from the cells of each experimental group and analyzed via western blotting.

[6] = test system: Mouse muscle cells (C2C12); assay: Muscle atrophy induced by cancer cell-conditioned medium (CCM, CT26): myotube differentiation by immunofluorescence; type: cell-based; conditions: CCM-induced atrophied cells, 2.5 μM, 48 hours
Method: First, mouse muscle cells (C2C12) were cultured, and the culture medium was replaced with cancer cell-conditioned medium (CCM) from cultured CT26 (colon carcinoma) cells to induce muscle atrophy.
(§1) Mouse muscle cells (C2C12) were first cultured, and then their medium was replaced with cancer cell-conditioned medium (CCM) from cultured mouse colon carcinoma cells (CT26) to induce muscle atrophy. The cells were treated with either 2.5 μM of ursolic acid alone or ursolic acid-glycated albumin and incubated for 48 hours. Thereafter, fluorescence expression was confirmed to evaluate the level of myotube differentiation.
as §1, with “and” for “and then”, “soyasapogenol B” for “ursolic acid”, “soyasapogenol B-glycated” for “ursolic acid-glycated”
as §1, with “and” for “and then”, “citrusinol” for “ursolic acid”, “citrusinol-glycated” for “ursolic acid-glycated”

Structure (SMILES): O=c1cc(-c2ccc(O)cc2)oc2cc(O)cc(O)c12 [apigenin]
- MHC expression [1]: increased
- MyoG expression [1]: increased
- atrophy caused by cisplatin [2]: inhibited
- cytotoxicity (number of DAPI-stained nuclei) [3]: neither the apigenin alone nor the apigenin-glycated albumin composite exhibited cytotoxicity
- RAW cell morphology ([4]; RAW cells polarized from M0 to M1, FIG. 7a): maintained in the M0 type
- ROS levels (intracellular/extracellular) ([4]; RAW cells polarized from M0 to M1, FIG. 7b): ROS reduction was observed
- expression of IGF-IR ([5]; CCM treatment): increased expression
- expression of MHC ([5]; CCM treatment): increased expression
- expression of p-AKT ([5]; CCM treatment): increased expression
- expression of p-Foxo3a ([5]; CCM treatment): increased expression
- MuRF1 expression ([5]; elevated by CCM treatment): reduced

Structure (SMILES): CC1(C)C=Cc2c(cc(O)c3c(=O)c(O)c(-c4ccc(O)cc4)oc23)O1 [citrusinol]
- MHC expression (immunofluorescence) [6]: increased

Structure (SMILES): CC1(C)C[C@@H](O)[C@]2(C)CC[C@]3(C)C(=CC[C@@H]4[C@@]5(C)CC[C@H](O)[C@](C)(CO)[C@@H]5CC[C@]43C)[C@@H]2C1 [soyasapogenol B]
- MHC expression (immunofluorescence) [6]: increased

Structure (SMILES): C[C@H]1[C@H](C)CC[C@]2(C(=O)O)CC[C@]3(C)C(=CC[C@@H]4[C@@]5(C)CC[C@H](O)C(C)(C)[C@@H]5CC[C@]43C)[C@H]12 [ursolic acid]
- MHC expression (immunofluorescence) [6]: increased
